Columns and labels:
[1] = biological target: T1, human P-glycoprotein (Homo sapiens, UniProt P08183); experiment: Assay on P-glycoprotein substrate specificity (transcellular transport, LLC-PK1 cells expressing human P-glycoprotein); type: in vitro ADME; settings: for efflux ratio at 3 h, 1 μM: pH 7.4, 1 μM test compound, human P-gp expressing LLC-PK1 cells, read-out: BA/AB (ratio of permeability coefficients Papp B to A / A to B)
T1 construct: host or cells: porcine kidney-derived LLC-PK1 cells
T1 sequence (P08183 whole entry): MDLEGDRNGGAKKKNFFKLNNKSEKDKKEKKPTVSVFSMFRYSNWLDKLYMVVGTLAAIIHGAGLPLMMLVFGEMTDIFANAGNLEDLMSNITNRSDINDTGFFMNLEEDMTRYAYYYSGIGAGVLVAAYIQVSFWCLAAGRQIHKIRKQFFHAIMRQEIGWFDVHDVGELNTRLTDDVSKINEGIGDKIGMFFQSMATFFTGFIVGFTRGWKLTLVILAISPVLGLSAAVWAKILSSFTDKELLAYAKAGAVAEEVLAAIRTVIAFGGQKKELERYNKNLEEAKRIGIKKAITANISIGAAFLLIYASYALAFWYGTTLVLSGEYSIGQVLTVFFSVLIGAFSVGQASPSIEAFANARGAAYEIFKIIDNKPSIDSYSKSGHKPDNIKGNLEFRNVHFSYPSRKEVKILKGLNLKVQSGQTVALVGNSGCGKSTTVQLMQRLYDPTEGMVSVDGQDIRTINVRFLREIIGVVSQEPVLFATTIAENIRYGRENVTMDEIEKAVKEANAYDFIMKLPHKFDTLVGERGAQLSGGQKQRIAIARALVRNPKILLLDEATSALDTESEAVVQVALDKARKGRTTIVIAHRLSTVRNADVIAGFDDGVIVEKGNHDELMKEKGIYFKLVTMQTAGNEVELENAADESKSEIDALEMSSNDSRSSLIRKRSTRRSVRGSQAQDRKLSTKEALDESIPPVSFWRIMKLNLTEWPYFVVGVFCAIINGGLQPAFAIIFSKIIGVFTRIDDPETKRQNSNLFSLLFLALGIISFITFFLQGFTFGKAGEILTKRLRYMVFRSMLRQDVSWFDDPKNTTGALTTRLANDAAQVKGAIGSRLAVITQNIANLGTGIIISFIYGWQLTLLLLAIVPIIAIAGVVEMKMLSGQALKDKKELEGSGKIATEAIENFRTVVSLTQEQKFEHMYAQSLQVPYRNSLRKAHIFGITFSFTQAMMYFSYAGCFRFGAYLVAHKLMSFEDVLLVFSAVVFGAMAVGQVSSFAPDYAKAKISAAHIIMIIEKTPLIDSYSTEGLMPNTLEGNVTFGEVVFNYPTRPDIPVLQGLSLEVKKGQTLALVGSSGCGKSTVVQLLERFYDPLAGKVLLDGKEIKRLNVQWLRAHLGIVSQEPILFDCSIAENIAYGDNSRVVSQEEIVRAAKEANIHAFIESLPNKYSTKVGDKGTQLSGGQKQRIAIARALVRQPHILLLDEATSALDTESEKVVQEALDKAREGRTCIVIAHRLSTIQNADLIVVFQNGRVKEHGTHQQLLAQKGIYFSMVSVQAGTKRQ
Method: P-glycoprotein (P-gp) substrate specificities were assessed in a transcellular transport assay system using cells expressing human P-glycoprotein. The human P-glycoprotein expression cells employing porcine kidney-derived LLC-PK1 cells as host cells were obtained from Dr. Alfred Schinkel in the Netherlands Cancer Institute [see Journal of Clinical Investigation, vol. 96, p. […] The cells were seeded on a filter membrane of 24-well HTS multiwell insert system (manufactured by Beckton Dickinson) to have a concentration of 0.15 million cells/well. The cells were cultured for about 1 week to form a single layer film by the cells. The multiwell insert system is divided into two compartments (the apical membrane side compartment and the basolateral membrane side compartment). Prior to the transport experiment, cell culture media on both sides (apical and basolateral sides) were replaced by Hank's balanced salt solution (HBSS) containing an assay buffer solution (10 mM Hepes (pH 7.4)). After about 1 hour, the basolateral and apical solutions were replaced by an assay buffer solution (0.5 mL) and a 1 μM test compound-containing assay buffer solution (0.5 mL), respectively, and the transport experiment was started for transportation from Apical to Basolateral (from A to B). After 3 hours, each 50 μL was collected as a measuring sample from both of the apical and basolateral sides. The reverse operation thereof was carried out for transportation from Basolateral to Apical (from B to A). […] After termination of the transport experiment, an equal amount of acetonitrile containing the internal standard was added to each measuring sample. The measuring samples were measured using LC-MS/MS to calculate the concentrations of the test compounds by a relative calibration curve method. The permeability coefficients of the test compounds transported in each of from A to B and from B to A were calculated (Papp: Expression 1). The ratios of the permeability coefficients between A to B and B to A were also determined (BA/AB: Expression 2). BA/AB was considered to be an index of P-glycoprotein (p-gp) substrate specificity [see Drug Metabolism and Disposition, vol. 31, p.
Papp=(0.5 mL×CR)/((CD+CR)×3 hr×Area) Expression 1
BA/AB=Papp(B to A)/Paap(A to B) Expression 2
Area: surface area of filter; CD: concentration of test compound in donor side after 3 hours; CR: concentration of test compound in receiver side after 3 hours

[2] = biological target: T2, human NPY Y1 receptor (Homo sapiens, UniProt P25929); experiment: NPY binding inhibition test ([125I] peptide YY binding to membranes of NPY Y1 receptor expressing CHO-K1 cells); settings: membrane of CHO-K1 cells expressing human NPY Y1 receptor, 25° C., 2 hours; read-out: IC50 against specific [125I] peptide YY binding
T2 construct: expressed in transfected cells; host or cells: CHO-K1 NFAT β-Lactamase (Aurora)
T2 sequence (P25929 1-384): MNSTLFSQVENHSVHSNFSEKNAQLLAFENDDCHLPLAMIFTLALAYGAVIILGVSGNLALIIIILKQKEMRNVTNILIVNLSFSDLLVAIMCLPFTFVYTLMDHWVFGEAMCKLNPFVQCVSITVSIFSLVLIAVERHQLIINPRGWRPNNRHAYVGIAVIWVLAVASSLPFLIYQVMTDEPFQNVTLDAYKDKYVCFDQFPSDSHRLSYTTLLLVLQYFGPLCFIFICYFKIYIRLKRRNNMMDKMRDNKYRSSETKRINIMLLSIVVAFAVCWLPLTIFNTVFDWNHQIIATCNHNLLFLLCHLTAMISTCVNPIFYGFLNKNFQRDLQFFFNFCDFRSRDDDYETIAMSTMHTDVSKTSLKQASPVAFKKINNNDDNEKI
From the text: A cDNA sequence encoding a human NPY Y1 receptor (Accession No. L07615) was cloned into expression vectors pEF1x (made by Invitrogen Inc.).

Compound | efflux ratio at 3 h, 1 μM [1] | IC50 [2] | human P-glycoprotein substrate specificity (in words) [1]
C=CCOC(=O)Nc1cccc(CNc2cc(C3CCOCC3)cc(CSc3nnc(CC)s3)n2)c1 [Compound (A), reference compound] | 5 | 0.33 nM | –
Cc1nc(SCc2cc(N3CCSCC3)cc(NCc3cccc(F)n3)n2)oc1C [Example 1, 6-{[(4,5-dimethyl-1,3-oxazol-2-yl)sulfanyl]methyl}-N-[(6-fluoropyridin-2-yl)methyl]-4-(thiomorpholin-4-yl)pyridin-2-amine] | 1.9 | 0.27 nM | notably low human P-glycoprotein substrate specificity
Cc1cccc(CNc2cc(N3CCSCC3)cc(CSc3nc(C)c(C)s3)n2)n1 [Example 2, 6-{[(4,5-dimethyl-1,3-thiazol-2-yl)sulfanyl]methyl}-N-[(6-methylpyridin-2-yl)methyl]-4-(thiomorpholin-4-yl)pyridin-2-amine] | – | 0.17 nM | –
CCc1sc(SCc2cc(N3CCC(F)CC3)cc(NCc3cccc(C)n3)n2)nc1C [Example 3, 6-{[(5-ethyl-4-methyl-1,3-thiazol-2-yl)sulfanyl]methyl}-4-(4-fluoropiperidin-1-yl)-N-[(6-methylpyridin-2-yl)methyl]pyridin-2-amine] | – | 0.26 nM | –
C=CCNc1cc(N2[C@@H]3CC[C@H]2C[C@H](F)C3)cc(CSc2nc(C)c(CC)s2)n1 [Example 4, 6-{[(5-ethyl-4-methyl-1,3-thiazol-2-yl)sulfanyl]methyl}-4-[(3-exo)-3-fluoro-8-azabicyclo[3,2,1]octo-8-yl]-N-(prop-2-en-1-yl)pyridin-2-amine] | – | 0.27 nM | –
Cc1cccc(CNc2cc(N3C4CCC3CC(F)(F)C4)cc(CSc3cc(C)n(C)n3)n2)n1 [Example 5, 4-(3,3-difluoro-8-azabicyclo[3,2,1]octo-8-yl)-6-{[(1,5-dimethyl-1H-pyrazol-3-yl)sulfanyl]methyl}-N-[(6-methylpyridin-2-yl)methyl]pyridin-2-amine] | – | 0.24 nM | –
C=CCNc1cc(N2CCC(F)(F)CC2)cc(CSc2cc(CC)n(C)n2)n1 [Example 6, 4-(4,4-difluoropiperidin-1-yl)-6-{[(5-ethyl-1-methyl-1H-pyrazol-3-yl)sulfanyl]methyl}-N-(prop-2-en-1-yl)pyridin-2-amine] | – | 0.28 nM | –
CCCCNc1cc(N2CCC(F)(F)CC2)cc(CSc2nn(C)c(CC)c2C)n1 [Example 7, N-butyl-4-(4,4-difluoropiperidin-1-yl)-6-{[(5-ethyl-1,4-dimethyl-1H-pyrazol-3-yl)sulfanyl]methyl}pyridin-2-amine] | – | 0.27 nM | –
CCc1c(C)c(SCc2cc(N3CCC(F)(F)CC3)cc(NCCOC)n2)nn1C [Example 8, 4-(4,4-difluoropiperidin-1-yl)-6-{[(5-ethyl-1,4-dimethyl-1H-pyrazol-3-yl)sulfanyl]methyl}-N-(2-methoxyethyl)pyridin-2-amine] | – | 0.27 nM | –
Cc1cccc(CNc2cc(N3CCOCC3)cc(CSc3nc(CF)c(C)s3)n2)n1 [Example 9, 6-({[4-(fluoromethyl)-5-methyl-1,3-thiazol-2-yl]sulfanyl}methyl)-N-[(6-methylpyridin-2-yl)methyl]-4-(morpholin-4-yl)pyridin-2-amine] | 1.8 | 0.2 nM | notably low human P-glycoprotein substrate specificity
CCc1sc(SCc2cc(N3CCOCC3)cc(NCc3cccc(C)n3)n2)nc1CF [Example 10, 6-({[5-ethyl-4-(fluoromethyl)-1,3-thiazol-2-yl]sulfanyl}methyl)-N-[(6-methylpyridin-2-yl)methyl]-4-(morpholin-4-yl)pyridin-2-amine] | – | 0.13 nM | –
Cc1cccc(CNc2cc(N3CCOCC3)cc(CSc3nc(CF)c(C4CC4)s3)n2)n1 [Example 11, 6-({[5-cyclopropyl-4-(fluoromethyl)-1,3-thiazol-2-yl]sulfanyl}methyl)-N-[(6-methylpyridin-2-yl)methyl]-4-(morpholin-4-yl)pyridin-2-amine] | – | 0.19 nM | –

From patent US20120028970A1, “HETEROARYLTHIOMETHYL PYRIDINE DERIVATIVE” (MSD K.K., priority 2009, published 2012)
